The text below walks through data of patent US9340577B2, “HLA binding motifs and peptides and their uses” (priority 1992, dated 2016).

pIC50: −log10 of the molar value. Read-outs that look alike come from different tables or passages of the source. No end group written: not given here.

Assay in all cases: biochemical
For one assay, the target named is DR1 (DRB1*0101) (Homo sapiens, UniProt P01903+P01911, A100R/D57E/F55L/F60I/F76Y/I96L/L162R/M171V/P40L/Q125E/R42F/V115G/Y59C). The class given is binding.
For the next assay, the target named is DR4w4 (DRB1*0401) (Homo sapiens, UniProt P01903+P01911, A100K/A169T/F76Y/I96L/K127E/L162R/M171V/N62H/P40V/Q125Y/R42H/S133A/S149N/S66Y/V115G/V209L/W38E). Format: binding.
In the next assay the target is DR7 (DRB1*0701) (Homo sapiens, UniProt P01903+P01911, A100R/A102G/A103Q/D57E/D86V/E43K/F76Y/K127E/L162R/M171V/P40G/Q125H/Q99D/R33Q/R42Y/R54Q/S133A/S66F/T210M/V115G/Y107V/Y59L/Y89S). Format: binding.
The next assay has as its target DRB1*0301 (Homo sapiens, UniProt P01903+P01911, A100K/A102G/A103R/A169T/F55Y/I96L/K41T/L162R/M171V/P40S/Q125H/Q178H/Q39Y/R42S/S66N/T106N/T262R/W38E/Y61H). The class given is binding.
For a further assay, the target named is DRB1*0405 (Homo sapiens, UniProt P01903+P01911, A100R/A169T/D86S/F76Y/I96L/K127E/L162R/M171V/N62H/P40V/Q125Y/R42H/S133A/S149N/S66Y/V115G/V209L/W38E). The class given is binding.
Another assay addresses DRB1*0901 (Homo sapiens, UniProt P01903+P01911, A100R/A103E/D57H/D86V/F55Y/F60I/F76Y/I96F/K127E/L162R/M171V/P40D/Q125H/Q99R/R33Q/R42F/S133A/S66N/T210M/V115G/W38K/Y107V/Y59G/Y89S). Format: binding.
Another assay addresses DRB1*1201 (Homo sapiens, UniProt P01903+P01911, A100R/A169T/D57E/D86V/F55L/H45Y/K41T/L162R/M171V/P40S/Q125H/Q178H/Q39Y/Q99D/R42G/S66L/T262R/V114A/V67L/W38E/Y59H/Y61H/Y89S). The class given is binding.
For the next assay, the target named is DRB1*1501 (Homo sapiens, UniProt P01903+P01911). The class given is binding.
The target of the next assay is DRB1*1101 (Homo sapiens, UniProt P01903+P01911, A100R/A169T/A87E/I96F/K41T/L162R/M171V/P40S/Q125H/Q178H/Q39Y/Q99D/R42S/S66Y/T262R/V115G/W38E).
Sequence of DRB1*1101 (P01903 26-254 limits assumed, other chains not shown): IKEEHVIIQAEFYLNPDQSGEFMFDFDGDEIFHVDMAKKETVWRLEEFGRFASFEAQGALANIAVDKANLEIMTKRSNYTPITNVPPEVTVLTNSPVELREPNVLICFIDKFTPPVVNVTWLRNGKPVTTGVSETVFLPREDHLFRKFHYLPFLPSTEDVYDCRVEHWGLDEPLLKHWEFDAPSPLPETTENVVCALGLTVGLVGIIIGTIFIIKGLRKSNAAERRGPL
The target of another assay is DRB5*0101 (Homo sapiens, UniProt P01903+Q30154).
Another assay concerns the target DRB1*0802 (Homo sapiens, UniProt P01903+P01911, A100R/A103L/A169T/F76Y/H45Y/I96F/K41T/L162R/M171V/P40S/Q125H/Q178H/Q39Y/Q99D/R218S/R42G/S66Y/V115G/W38E). The class given is binding.
Another assay deals with DRB1*1302 (Homo sapiens, UniProt P01903+P01911, A100E/A169T/K41T/L162R/M171V/P40S/Q125H/Q178H/Q39Y/Q99D/R42S/S66N/T262R/V115G/W38E/Y61H). Format: binding.
Sequence of DRB1*1302 (P01903 26-254 limits assumed, other chains not shown): as above
In the next assay the target is DRB4*0101 (Homo sapiens, UniProt P01903+P13762, G164S). Format: binding.

Sequence of DRB1*0301 (P01903 26-254 limits assumed, other chains not shown): as above

In general, pIC50 refers to the negative decadic logarithm of the IC50, by convention in mol/L. Higher therefore signals a low IC50. Turning to AQEVHNDAQVLHVLK [Peptide 90.0047], the pIC50 on DR1 (DRB1*0101) was 6.39; at DR4w4 (DRB1*0401), 5.34; against DR7 (DRB1*0701), 5.11; on DRB1*0301, 7.68; against DRB1*0405, below 4.70; against DRB1*0901, 4.99. The pIC50 at DRB1*1201 is below 4.70; against DRB1*1501 it was 5.59; at DRB1*1101 (Binding affinity DRB1 *1101), 4.97; at DRB5*0101 (Binding affinity DRB5 *0101), below 4.70.
As for LKVLIQPYSIYAHLQ [Peptide 89.0098], the pIC50 was 6.28 on DR4w4 (DRB1*0401); 7.59 at DR7 (DRB1*0701); 6.72 against DRB1*0301; 5.65 against DRB1*0405; 5.32 against DRB1*0802; 4.89 against DRB1*0901. Further, the pIC50 against DRB1*1201 was 6.63; against DRB1*1302, 6.17; against DRB1*1501, 7.10; at DRB1*1101 (Binding affinity DRB1 *1101), 6.17; at DRB5*0101 (Binding affinity DRB5 *0101), 6.00.
As for QMFLGTVKIPPTVQI [Peptide 89.0188], the pIC50 against DR7 (DRB1*0701) was 5.33; on DRB1*0301, 6.80; on DRB1*0405, 6.21; against DRB1*0802, 6.30; at DRB1*0901, below 4.70; on DRB1*1201 it was 6.26. Also, the pIC50 against DRB1*1501 was 6.68; against DRB4*0101, 7.89; on DRB1*1101 (Binding affinity DRB1 *1101) it was 6.32; at DRB5*0101 (Binding affinity DRB5 *0101), 5.35.
For the molecule KIGMLDDATVPCWNY [Peptide 90.0040], the pIC50 on DR1 (DRB1*0101) was 5.35; against DR4w4 (DRB1*0401), 6.31; against DR7 (DRB1*0701) it was below 4.70; at DRB1*0301 it was 6.80; against DRB1*0405, below 4.70; against DRB1*0802, below 4.70. Moreover, the pIC50 is below 4.70 on DRB1*0901; 4.90 on DRB1*1201; below 4.70 on DRB1*1302; below 4.70 at DRB1*1501; below 4.70 on DRB1*1101 (Binding affinity DRB1 *1101); below 4.70 on DRB5*0101 (Binding affinity DRB5 *0101).
For the molecule DRGVLILLLIRFKCG [Peptide 89.0099], the pIC50 against DR1 (DRB1*0101) is 7.70; against DR4w4 (DRB1*0401) it was 5.83; on DR7 (DRB1*0701), 6.42; against DRB1*0301 it was 6.33; at DRB1*0405, 5.48; against DRB1*0802, 5.33. The results for the pIC50 on DRB1*1201, at DRB1*1101 (Binding affinity DRB1 *1101) and at DRB5*0101 (Binding affinity DRB5 *0101) were 6.15, 5.79 and 7.08, respectively.
Regarding PEWIQRLTIIQHGID [Peptide 89.0031], the pIC50 is 6.06 at DR1 (DRB1*0101); 5.36 at DRB1*0301; 6.88 against DRB1*0405; 6.73 at DRB1*0802; 5.35 at DRB1*0901; 6.28 on DRB1*1201. For the same molecule, the pIC50 against DRB1*1302 was 6.25; against DRB1*1501 it was 5.47; on DRB4*0101, 8.48; on DRB1*1101 (Binding affinity DRB1 *1101) it was 6.22; on DRB5*0101 (Binding affinity DRB5 *0101), 6.62.
Regarding PHAFPFDKNGNPVYE [Peptide 90.0106], the pIC50 is 6.29 on DR1 (DRB1*0101); 5.15 at DR7 (DRB1*0701); 6.03 against DRB1*0301; 5.14 on DRB1*0405; below 4.70 at DRB1*0802; 6.17 against DRB1*1201. Also, the pIC50 on DRB1*1302 is 5.86; against DRB1*1501, 5.56; on DRB1*1101 (Binding affinity DRB1 *1101), below 4.70; at DRB5*0101 (Binding affinity DRB5 *0101) it was below 4.70.
For the molecule ETCMLIEPPKLRSSV [Peptide 89.0084], the pIC50 at DR1 (DRB1*0101) is 7.46; on DR7 (DRB1*0701), 6.12; against DRB1*0301 it was 6.44; at DRB1*0405, 6.04; at DRB1*0802, 5.87; against DRB1*0901, 5.29. The pIC50 on DRB1*1201 is 6.15; against DRB1*1302 it was 6.32; against DRB4*0101, 7.32; on DRB1*1101 (Binding affinity DRB1 *1101), 6.91.
In the case of KTLIKPATLYAHIQC [Peptide 89.0083], the pIC50 on DR1 (DRB1*0101) was 7.22; on DR7 (DRB1*0701) it was 6.51; on DRB1*0301, 5.91; at DRB1*0405, 6.08; on DRB1*0802, 6.64; on DRB1*1201, 6.37. The pIC50 is 6.18 against DRB1*1501, 7.29 on DRB4*0101, 7.46 on DRB1*1101 (Binding affinity DRB1 *1101) and 5.28 at DRB5*0101 (Binding affinity DRB5 *0101).
AFQVIELQMALETLN [Peptide 90.0024]: the pIC50 on DR1 (DRB1*0101) was 7.54; on DRB1*0301 it was 5.89; against DRB1*0405, 5.68; against DRB1*0802, 5.31; against DRB1*1201 it was 6.33; on DRB1*1302, 7.05. Also, the pIC50 was 6.42 on DRB1*1501, 7.96 against DRB4*0101, 5.48 on DRB1*1101 (Binding affinity DRB1 *1101) and below 4.70 at DRB5*0101 (Binding affinity DRB5 *0101).
For GKSLFGMSLMKFLQG [Peptide 89.0019], the pIC50 against DR1 (DRB1*0101) was 7.77; at DR4w4 (DRB1*0401), 6.33; at DR7 (DRB1*0701) it was 7.80; on DRB1*0301 it was 5.56; on DRB1*0802 it was 6.15; on DRB1*0901, 6.83. Moreover, the pIC50 against DRB1*1201 is 7.10; against DRB1*1302, 5.69; against DRB1*1501, 5.56; against DRB4*0101 it was 6.43; on DRB1*1101 (Binding affinity DRB1 *1101) it was 5.87; on DRB5*0101 (Binding affinity DRB5 *0101), 6.29.
As for RETIEKLLSKLLCVS [Peptide 89.0006], the pIC50 was 6.70 at DR1 (DRB1*0101); below 4.70 on DR4w4 (DRB1*0401); 6.73 at DR7 (DRB1*0701); 4.89 against DRB1*0301; 5.21 on DRB1*0405; 6.19 against DRB1*0802. Besides, the pIC50 against DRB1*0901 is 5.19; against DRB1*1201, 6.28; against DRB1*1302, 6.22; at DRB1*1501, 6.63; at DRB1*1101 (Binding affinity DRB1 *1101) it was 6.15; on DRB5*0101 (Binding affinity DRB5 *0101), 5.15.
Regarding `CC(C)C[C@H](NC(=O)[C@@H](NC(=O)[C@H](Cc1c[nH]c2ccccc12)NC(=O)[C@H](CC(=O)O)NC(=O)[C@H](CCC(=O)O)NC(=O)[C@@H](NC(=O)[C@H](CCCCN)NC(=O)[C@H](Cc1ccc(O)cc1)NC(=O)[C@H](CCCNC(=N)N)NC(=O)[C@H](CO)NC(=O)[C@@H](N)CCC(N)=O)[C@@H](C)O)[C@@H](C)O)C(=O)N[C@@H](CCC(N)=O)C(=O)N[C@@H](CC(=O)O)C(=O)N[C@H](C(=O)N[C@@H](CS)C(=O)O)[C@@H](C)O` [Peptide 90.0179], the pIC50 on DR4w4 (DRB1*0401) was 7.15; at DR7 (DRB1*0701), 5.19; at DRB1*0301, 6.47; at DRB1*0405 it was 5.80; at DRB1*0802, 6.23; at DRB1*0901, 5.71. Moreover, the negative-log IC50 (pIC50) was 6.71 on DRB1*1201; 7.15 on DRB1*1302; 6.46 against DRB1*1501; 5.68 against DRB1*1101; below 4.70 on DRB5*0101.
Consider MNYVVWDSIYYITET [Peptide 90.0214], for which the pIC50 at DR1 (DRB1*0101) was 5.58; against DR7 (DRB1*0701) it was 7.26; against DRB1*0301, 6.82; at DRB1*0405, 6.34; against DRB1*0802 it was below 4.70; on DRB1*0901, 6.05. Further, the pIC50 is 5.94 against DRB1*1201; 7.77 against DRB1*1302; 5.51 against DRB1*1501; 5.79 on DRB1*1101 (Binding affinity DRB1 *1101); 4.74 at DRB5*0101 (Binding affinity DRB5 *0101).
For ISEVYGDTPEWIQRQ [Peptide 90.0035], the pIC50 against DR1 (DRB1*0101) was below 4.70; against DR4w4 (DRB1*0401), below 4.70; at DR7 (DRB1*0701), 5.16; against DRB1*0301 it was 7.30; at DRB1*0405, 4.89; at DRB1*0802 it was below 4.70. Besides, the pIC50 was below 4.70 against DRB1*0901; below 4.70 at DRB1*1201; 8.16 against DRB1*1302; below 4.70 against DRB1*1501; below 4.70 at DRB1*1101 (Binding affinity DRB1 *1101); below 4.70 on DRB5*0101 (Binding affinity DRB5 *0101).
